The values below come from patent US20030040456A1, “Method and apparatus for cleaning article” (priority 2000, published 2003).

Data set [1] is described as follows: solubility of the organic solvents in water at 60° C. The data set is classed as physicochemical. The procedure:
The organic solvent having high compatibility with oil is preferably a polar organic solvent as described above because excellent cleanability can be obtained. The polar organic solvent is particularly preferably an organic solvent having low compatibility with water, specifically solubility in water at 60° C. of 50 vol % or less, preferably 30 vol % or less. More specifically, the polar organic solvent is preferably selected from a propylene glycol alkyl ether-based compound represented by the following formula (I): [drawing 1]
Compatibility with water means ability of mixing with water in any ratio at 60° C.
(§1) The organic solvents and surfactants used in examples and comparative examples are given below.

The nature of data set [2]: solubility of the organic solvents in castor oil at 30° C. Format: physicochemical. The procedure:
In the present invention, the organic solvent having high compatibility with oil is an organic solvent having high compatibility with oil adhered to an article to be cleaned, preferably an organic solvent which can be mixed with castor oil (Japanese Pharmacopoeia Act) as a typical example of the oil and standard oil in any ratio at 30° C. Preferred examples of the organic solvent having high compatibility with such oil include paraffin-based hydrocarbons such as dodecane, undecane and tridecane, naphthene-based hydrocarbons and polar organic solvents. Out of these, polar organic solvents are preferred. The polar organic solvents are preferably organic solvents having a dielectric constant of 8 or more, preferably 10 or more, such as glycol ether-based compounds, pyrrolidone-based compounds and imidazolidinone-based compounds. As the glycol ether-based compounds may be used ethylene glycol-based compounds but preferred are propylene glycol alkyl ether-based compounds.
as §1

Take `CN1CCN(C)C1=O` [DMI, 1,3-dimethyl-2-imidazolidinone]: the “solubility in water (in words)” value in data set [1] is recorded as “infinitely soluble”. Further, the “solubility in castor oil” value in data set [2] is reported as “infinitely soluble”.

On to `CCCOC(C)COC(C)CO` (stereo not drawn) [DPP, dipropylene glycol monopropyl ether], for which the solubility in water in data set [1] was determined as 10 vol %. Moreover, in data set [2], the “solubility in castor oil” value is reported as “infinitely soluble”.

`CN1CCCC1=O` [NMP, N-methylpyrrolidone]: the “solubility in water (in words)” value in data set [1] is listed as “infinitely soluble”. Further, in data set [2], the “solubility in castor oil” value was “infinitely soluble”.

In data set [1], `CCCCOCC(C)O` (stereo not drawn) [PB, propylene glycol monobutyl ether] yielded a solubility in water of 6 vol %. Besides, the “solubility in castor oil” value in data set [2] is given as “infinitely soluble”.

Regarding `CCCCCCCCCCCCCC` [TD, n-tetradecane], the solubility in water entry in data set [1] is given as “less than 1 vol %”. In addition, in data set [2], the “solubility in castor oil” value is listed as “infinitely soluble”.

As for “dipropylene glycolmonomethyl ether [DPM]”, in data set [1], the “solubility in water (in words)” value is listed as “infinitely soluble”. For the same compound, the “solubility in castor oil” value in data set [2] was “infinitely soluble”.
